According to US20090118135A1, “METHODS AND COMPOUNDS FOR REGULATING APOPTOSIS” (The Burnham Institute, priority 2007, published 2009):
Like-named read-outs stand apart in the source and are kept apart here.

Columns and labels:
GST-Bcl-B = biological target: T1, GST-Bcl-B (Homo sapiens, UniProt Q9HD36); experiment: Bcl-B/FITC-TR3-r8 fluorescence polarization competition (displacement) assay, HTS and dose-response
T1 sequence (Q9HD36 1-182 limits assumed): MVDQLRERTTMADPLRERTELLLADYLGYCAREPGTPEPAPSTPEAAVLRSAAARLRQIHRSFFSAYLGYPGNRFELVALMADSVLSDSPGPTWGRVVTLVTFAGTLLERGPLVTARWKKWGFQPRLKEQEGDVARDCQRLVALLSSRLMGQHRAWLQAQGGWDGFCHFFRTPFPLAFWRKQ

GST-Bfl-1 = biological target: T2, GST-Bfl-1 (Homo sapiens, UniProt Q16548); experiment: Bfl-1/FITC-Bid BH3 competitive fluorescence polarization assay; assay type: binding; details: primary HTS hits, MLSCN library (PubChem SIDs), Table 5B
T2 construct: lacking their C-terminal transmembrane domains (about the last 20 amino acids) (“ΔTM”); made in house; host or cells: XL-1 Blue E. coli, pGEX 4T-1
T2 sequence (Q16548 1-155 limits assumed): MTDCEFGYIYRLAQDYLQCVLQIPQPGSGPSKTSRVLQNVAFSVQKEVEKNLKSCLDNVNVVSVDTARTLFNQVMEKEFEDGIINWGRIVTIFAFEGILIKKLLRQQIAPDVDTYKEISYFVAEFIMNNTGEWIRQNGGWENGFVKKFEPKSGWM

[1] = Table 8, NCI Structural library, Binding Assay, FP, Concentration 0.02 uM
[2] = read-out: Result Value (Result Type % Inhibition), BCL-b/TR3

Compound | % Activity (GST-Bfl-1) [%] | FRatio (GST-Bfl-1) | other results
O=C(O)C1=CC(=C(c2ccc(O)c(C(=O)O)c2)c2ccc(O)c(C(=O)O)c2)C=CC1=O [A 1895] | – | – | Is Hit (GST-Bcl-B; LOPAC1280 library primary screen): Yes; F Ratio (GST-Bcl-B; LOPAC1280 library, fluorescence intensity normalized to plate negative controls): 0.07629; inhibition at 0.02 µM (GST-Bcl-B; read-out: Result Value (% Inhibition)): 107%
O=[N+]([O-])c1ccc2c(/N=N/c3ccc4ccccc4c3O)c(O)cc(S(=O)(=O)O)c2c1 [Compound 7223] | – | – | F Ratio (GST-Bcl-B; [1]): 0.05712; Is Hit (GST-Bcl-B; [1]): Yes; inhibition at 0.02 µM (GST-Bcl-B; [2]): 139%
Cc1ccc(/N=N/c2c(O)ccc3cc(S(=O)(=O)O)ccc23)cc1 [Compound 7814] | – | – | F Ratio (GST-Bcl-B; [1]): 0.28; Is Hit (GST-Bcl-B; [1]): Yes; inhibition at 0.02 µM (GST-Bcl-B; [2]): 54.3%
O=S(=O)(O)c1ccc(NN(c2c(O)ccc3ccccc23)S(=O)(=O)O)cc1 [Compound 9600] | – | – | F Ratio (GST-Bcl-B; [1]): 0.4361; Is Hit (GST-Bcl-B; [1]): Yes; inhibition at 0.02 µM (GST-Bcl-B; [2]): 50.7%
CSc1nc2n(n1)C(c1ccccn1)C1=C(O)CC(C)(C)CC1=N2 (stereo not shown) [Compound 14742716] | 61.8 | 0.84 | –
O=C(Nc1cccnc1)c1ccc(S(=O)(=O)N2CCCCCC2)cc1 [Compound 14744015] | 88.4 | 0.84 | –
O=C(COC(=O)Cc1ccccc1)Nc1ncc(Cl)cc1Cl [Compound 14744122] | 58.8 | 1.03 | –
O=C(COC(=O)CC12CC3CC(CC(C3)C1)C2)Nc1ncc(Cl)cc1Cl [Compound 14744137] | 52 | 1.16 | –
O=C(COC(=O)C1CCN(S(=O)(=O)c2cc([N+](=O)[O-])ccc2Cl)CC1)Nc1ncc(Cl)cc1Cl [Compound 14744641] | 75.9 | 0.93 | –
O=C(Nc1ccccc1N1CCOCC1)c1cc(-c2ccco2)nc2ccccc12 [Compound 14744733] | 61.4 | 0.83 | –
Cc1cnnn1-c1ccc(C(=O)CCl)cc1 [Compound 14744853] | 52.9 | 0.82 | –
Cc1cc(N)ccc1N1CCCC1 [Compound 14744983] | 86.5 | 0.71 | –
O=C(c1cc2c(s1)CCC2)N1CCN(c2ccccc2)CC1 [Compound 14745443] | 71.6 | 0.73 | –
O=C(OCC(=O)N1CCN(C(=O)c2ccco2)CC1)c1cc(-c2ccco2)nc2ccccc12 [Compound 14745657] | 73.4 | 0.97 | –
Cc1ccc(-[n+]2c(-c3ccc(Br)cc3)cn3c2CCc2ccc4cccnc4c2-3)cc1 [Compound 14745910] | 56.2 | 0.81 | –
COc1cccc(N2CCN(Cc3ccsc3)CC2)c1 [Compound 14746122] | 56.1 | 0.85 | –
Oc1ccc(-c2cn3c(n2)SCC3)cc1O [Compound 14746201] | 77.7 | 0.91 | –
Cc1csc(N/N=C/c2ccc(O)c([N+](=O)[O-])c2)n1 [Compound 14746238] | 57.1 | 0.84 | –
O=C(C[n+]1ccc(C(=O)N/N=C/c2ccc(O)cc2)cc1)c1ccccc1 [Compound 14746260] | 57.9 | 0.72 | –

Compound | % Activity (GST-Bfl-1) [%] | FRatio (GST-Bfl-1) | other results
CC(=O)c1c(CC(=O)O)nn(-c2nc3ccccc3s2)c1O [Compound 14746319] | 69 | 0.7 | –
Cc1cc(C)c(NC(=O)CN(c2ccccc2)S(=O)(=O)N(C)C)c(C)c1 [Compound 14746364] | 90.5 | 0.65 | –
O=[N+]([O-])c1cc(/C=N/Nc2nccs2)ccc1O [Compound 14746394] | 107 | 0.75 | –
CCC(=O)Nc1cccc(NC(C)=O)c1 [Compound 14746435] | 92.4 | 0.85 | –
COc1cc2c(C#N)c(N3CCN(C)CC3)nc(N)c2c(N)n1 [Compound 14746488] | 51.4 | 0.92 | –
Cc1cc(-c2csc(N)n2)c(C)n1C [Compound 14746541] | 69.5 | 0.94 | –
COc1ccccc1N1CCN(C(=O)c2cc3c(s2)CCC3)CC1 [Compound 14746697] | 74.1 | 0.9 | –
Cc1ccc2c(Cl)cc(Cl)c(OCC(=O)NCc3ccco3)c2n1 [Compound 14747102] | 56.5 | 0.8 | –
Cc1cc[n+]2c3c(cccc13)CCC2 [Compound 14748512] | 76.6 | 0.76 | –
CCCCNC(=O)COC(=O)c1ccc(Cl)c(S(=O)(=O)N2CCCC2)c1 [Compound 16952426] | 54.8 | 0.92 | –
C[C@@H](C(=O)Nc1nc(-c2ccccn2)cs1)N1C(=O)C2CCCCC2C1=O (stereo partly shown) [Compound 16952892] | 51.1 | 1.04 | –
Cc1ccc(/N=N/c2ccc(O)c(/C=N/NC(=O)c3ccc(N)cc3)c2)cc1C [Compound 16952937] | 91.7 | 0.71 | –
Cc1cc(C)c(I)c(S(=O)(=O)N2CCC(C(=O)OCC(=O)N3c4ccccc4NC(=O)C3(C)C)CC2)c1C [Compound 16952989] | 72.9 | 0.93 | –
COc1ccc(S(=O)(=O)N2Cc3ccccc3CC2C(=O)O)cc1 (stereo not shown) [Compound 16953199] | 53 | 0.85 | –
O=C(COC(=O)c1ccc(S(=O)(=O)NCc2ccco2)cc1)NCC1CCCCC1 [Compound 16953469] | 60.3 | 1.01 | –
O=C(N/N=C1\C(=O)c2cccc3cccc1c23)c1ccc(Cl)cc1 [Compound 16953557] | 68.6 | 0.84 | –
CC(=N)/C(C#N)=C(\O)CSc1nc2ccccc2[nH]1 [Compound 17385704] | 105.8 | 0.67 | –
COc1cc(-c2nnc(SCc3cc(=O)oc4cc(O)c(O)cc34)o2)cc(OC)c1OC [Compound 17385711] | 68.3 | 0.7 | –
COc1ccccc1CNC(=O)COC(=O)c1cc(-c2ccco2)nc2ccccc12 [Compound 17385737] | 70.8 | 0.81 | –

Compound | % Activity (GST-Bfl-1) [%] | FRatio (GST-Bfl-1) | other results
N#Cc1ccccc1CN1C(=O)S/C(=C/c2cccn2-c2ccc(C(=O)O)cc2)C1=O [Compound 17385953] | 63.5 | 0.75 | –
Cn1c(SCC(=O)Nc2ccc3nc(SCC(=O)N4CCCC4)sc3c2)nnc1-c1ccc(N)cc1 [Compound 17386645] | 53.9 | 0.79 | –
COc1cc(CNCCc2c[nH]c3ccccc23)ccc1OCc1ccc(F)cc1 [Compound 17386700] | 76.5 | 0.84 | –
CN(CC(=O)Nc1c(Cl)cccc1Cl)C(=O)CCCN1C(=O)c2ccccc2C1=O [Compound 17388283] | 57.1 | 0.97 | –
O=[N+]([O-])c1cc(-c2ccc(/C=N/c3nc4ccccn4c3-c3ccco3)o2)ccc1Cl [Compound 17388349] | 60.5 | 0.99 | –
CCn1c(CSc2nc3ccccc3s2)nnc1SCC(=O)c1ccc(O)c(O)c1 [Compound 17388455] | 74.1 | 0.8 | –
CN(C)c1cccc(C(=O)OCc2cc(=O)oc3cc(O)ccc23)c1 [Compound 17388495] | 71.7 | 1 | –
C=CCN1C(=O)/C(=C2/C(=O)N(CC(=O)O)c3ccccc32)S/C1=N\c1nccs1 [Compound 17401584] | 131.8 | 0.83 | –
Oc1ccc(C2=Nn3c(nnc3-c3ccco3)SC2)cc1O [Compound 17401638] | 56.6 | 0.82 | –
COc1ccc(C2C=C(c3ccc(Br)cc3)Nc3nc(NS(C)(=O)=O)nn32)cc1 (stereo not shown) [Compound 17401655] | 54.6 | 1.46 | –
O=C(CCCCCn1c(=S)[nH]c2ccccc2c1=O)NCc1ccc2c(c1)OCO2 [Compound 17402018] | 52.9 | 1.37 | –
O=c1c([N+](=O)[O-])cc(C(F)(F)F)cn1Cc1cccc(Cl)c1 [Compound 17402915] | 89.8 | 0.61 | –
O=C1c2ccccc2C(=O)c2c1cccc2N1CCN(CCO)CC1 [Compound 17403435] | 56.9 | 1.3 | –
Nc1cc2nsnc2cc1Br [Compound 17407909] | 58.5 | 1.42 | –
O=C(N/N=C/c1ccc(F)cc1)c1cc(-c2ccco2)nc2ccccc12 [Compound 17408998] | 84.8 | 0.87 | –
O=C(COc1ccccc1C(=O)N/N=C/c1ccc(O)c(O)c1)N/N=C/c1ccc(O)c(O)c1 [Compound 17409262] | 70.9 | 0.77 | –
Cc1nc(NC(=O)c2ccco2)sc1-c1csc(Nc2ccc(Cl)cc2Cl)n1 [Compound 17410012] | 54.4 | 0.7 | –
COC(=O)C1=C(C)N(c2ccccc2)/C(=C/c2cccs2)C1=O [Compound 17415043] | 65.7 | 0.53 | –
N/C(=N\N=C\c1ccc(-c2ccc(O)c(C(=O)O)c2)o1)N[N+](=O)[O-] [Compound 17416093] | 84.4 | 0.7 | –
